In US5149777A, “Human insulin analogs and preparations containing them” (Novo Nordisk A/S, priority 1991, dated 1992):

Assays:
[1] = target: insulin receptors of isolated rat hepatocytes (Rattus norvegicus, UniProt P15127)
Experimental: (§1) The biological activity in vitro was determined by measuring the binding affinity to the insulin receptors of isolated rat adipocytes and hepatocytes essentially as described in J. Gliemann, S. Gammeltoft: Diabetologia 10, 105-113 (1974).

[2] = target: T1, insulin receptors of isolated rat adipocytes (Rattus norvegicus, UniProt P15127); assay: Binding affinity to insulin receptors of isolated rat adipocytes; details: relative to semisynthetic human insulin, potency set to 100%
T1 construct: endogenous in cells; host or cells: isolated rat adipocytes
T1 sequence (P15127 27-759 limits assumed): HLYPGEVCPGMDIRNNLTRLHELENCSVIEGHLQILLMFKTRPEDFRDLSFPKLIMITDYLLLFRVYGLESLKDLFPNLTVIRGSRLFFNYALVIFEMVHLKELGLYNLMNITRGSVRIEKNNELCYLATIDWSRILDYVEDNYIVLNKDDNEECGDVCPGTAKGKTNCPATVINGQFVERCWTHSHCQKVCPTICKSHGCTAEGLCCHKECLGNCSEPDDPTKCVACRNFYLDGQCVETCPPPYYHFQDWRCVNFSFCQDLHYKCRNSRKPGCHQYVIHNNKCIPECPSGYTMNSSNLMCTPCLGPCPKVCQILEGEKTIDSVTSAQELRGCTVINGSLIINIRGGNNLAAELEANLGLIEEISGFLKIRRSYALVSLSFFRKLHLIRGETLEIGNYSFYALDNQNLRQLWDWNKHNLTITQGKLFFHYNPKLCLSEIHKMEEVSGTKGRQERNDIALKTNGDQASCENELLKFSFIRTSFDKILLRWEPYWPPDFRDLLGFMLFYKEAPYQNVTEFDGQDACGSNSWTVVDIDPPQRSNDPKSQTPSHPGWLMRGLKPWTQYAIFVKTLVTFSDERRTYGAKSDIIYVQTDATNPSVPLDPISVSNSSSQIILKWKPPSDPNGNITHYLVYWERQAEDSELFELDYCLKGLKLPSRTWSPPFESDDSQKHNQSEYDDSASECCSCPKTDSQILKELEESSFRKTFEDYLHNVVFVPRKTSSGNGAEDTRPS
T1 sequence (P15127 764-1383 partner limits assumed): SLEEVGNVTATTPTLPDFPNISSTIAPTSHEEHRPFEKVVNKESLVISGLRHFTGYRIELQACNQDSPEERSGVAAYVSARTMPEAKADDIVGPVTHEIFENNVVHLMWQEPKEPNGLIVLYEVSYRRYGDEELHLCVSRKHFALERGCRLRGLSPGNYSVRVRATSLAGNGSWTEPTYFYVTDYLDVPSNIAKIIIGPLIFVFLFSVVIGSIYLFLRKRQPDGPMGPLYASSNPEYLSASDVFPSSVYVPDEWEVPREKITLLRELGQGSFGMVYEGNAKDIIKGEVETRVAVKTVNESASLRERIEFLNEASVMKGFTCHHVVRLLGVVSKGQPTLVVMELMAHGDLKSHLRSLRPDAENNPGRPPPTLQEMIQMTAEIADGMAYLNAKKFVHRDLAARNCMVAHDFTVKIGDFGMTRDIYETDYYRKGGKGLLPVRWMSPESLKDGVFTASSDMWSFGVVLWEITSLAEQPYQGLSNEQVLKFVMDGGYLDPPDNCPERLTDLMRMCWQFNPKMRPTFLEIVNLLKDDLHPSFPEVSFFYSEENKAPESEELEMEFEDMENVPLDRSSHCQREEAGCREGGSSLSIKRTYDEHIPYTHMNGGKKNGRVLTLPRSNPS
Experimental: as §1

Chain of insulin receptors of isolated rat hepatocytes (P15127 27-759 limits assumed): as the sequence (P15127 27-759 limits assumed) above
Chain of insulin receptors of isolated rat hepatocytes (P15127 764-1383 partner limits assumed): as the sequence (P15127 764-1383 partner limits assumed) above

| Substance | Biological activity in vitro (binding affinity), Hepatocytes [1] | Biological activity in vitro (binding affinity), Adipocytes [2] |
| --- | --- | --- |
| [His^B25 ]-human insulin | 142% | 150% |
| [His^B25, Asp^B28 ]-des[Thr^B30 ]-human insulin | 135% | 130% |
| [Tyr^B25 ]-human insulin | 222% | 356% |
| [Tyr^B25, Asp^B28 ]-human insulin | 138% | 201% |
